Test results: ChEMBL document CHEMBL5113392, “Novel hybrid pyrrolidinedione-thiazolidinones as potential anticancer agents: Synthesis and biological evaluation” (Eur J Med Chem, 2022)

Experiments:
[1] = Selectivity index, ratio of GI50 for human HaCaT cells to GI50 for human HeLa cells; format: toxicity; settings: HaCaT cells versus HeLa cells, read-out: RatioGI50
[2] = test system: HCT-116; assay: Anticancer activity against human HCT-116 cells assessed as cell growth inhibition incubated for 72 hrs by MTT assay; format: functional
[3] = test system: HeLa; assay: Anticancer activity against human HeLa cells assessed as cell growth inhibition incubated for 72 hrs by MTT assay; format: functional
[4] = Selectivity index, ratio of GI50 for human HaCaT cells to GI50 for human SK-OV-3 cells; format: toxicity; settings: HaCaT cells versus SK-OV-3 cells, read-out: RatioGI50
[5] = Selectivity index, ratio of GI50 for human HaCaT cells to GI50 for human HCT116-p53-null cells; format: toxicity; settings: HaCaT cells versus HCT116-p53-null cells, read-out: RatioGI50
[6] = Selectivity index, ratio of GI50 for human HaCaT cells to GI50 for human MDA-MB-231 cells; format: toxicity; settings: HaCaT cells versus MDA-MB-231 cells, read-out: RatioGI50
[7] = test system: LOX IMVI; assay: Anticancer activity against human LOX IMVI cells assessed as inhibition of cell growth at 10 uM incubated for 48 hrs by SRB assay; format: functional
[8] = test system: Jurkat; assay: Anticancer activity against human Jurkat cells assessed as cell growth inhibition incubated for 72 hrs by MTT assay; format: functional
[9] = Selectivity index, ratio of GI50 for human HaCaT cells to GI50 for human MCF7 cells; format: toxicity; settings: HaCaT cells versus MCF7 cells, read-out: RatioGI50
[10] = test system: MDA-MB-231; assay: Anticancer activity against human MDA-MB-231 cells assessed as cell growth inhibition incubated for 72 hrs by MTT assay; format: functional
[11] = test system: U-251; assay: Anticancer activity against human U-251 cells assessed as cell growth inhibition incubated for 72 hrs by MTT assay; format: functional
[12] = test system: SK-OV-3; assay: Anticancer activity against human SK-OV-3 cells assessed as cell growth inhibition incubated for 72 hrs by MTT assay; format: functional
[13] = Selectivity index, ratio of GI50 for human HaCaT cells to GI50 for human U-251 cells; format: toxicity; settings: HaCaT cells versus U-251 cells, read-out: RatioGI50
[14] = test system: MCF7; assay: Anticancer activity against human MCF7 cells assessed as cell growth inhibition incubated for 72 hrs by MTT assay; format: functional
[15] = test system: A549; assay: Anticancer activity against human A549 cells assessed as cell growth inhibition incubated for 72 hrs by MTT assay; format: functional
[16] = Cytotoxicity against human HaCaT cells assessed as cell growth inhibition incubated for 72 hrs by MTT assay; format: toxicity, cell-based
[17] = Selectivity index, ratio of GI50 for human HaCaT cells to GI50 for human HCT-116 cells; format: toxicity; settings: HaCaT cells versus HCT-116 cells, read-out: RatioGI50
[18] = Anticancer activity against human HCT116-p53-null cells assessed as cell growth inhibition incubated for 72 hrs by MTT assay; format: functional
[19] = Selectivity index, ratio of GI50 for human HaCaT cells to GI50 for human Jurkat cells; format: toxicity; settings: HaCaT cells versus Jurkat cells, read-out: RatioGI50
[20] = Selectivity index, ratio of GI50 for human HaCaT cells to GI50 for human A549 cells; format: toxicity; settings: HaCaT cells versus A549 cells, read-out: RatioGI50
[21] = test system: UO-31; assay: Anticancer activity against human UO-31 cells assessed as inhibition of cell growth at 10 uM incubated for 48 hrs by SRB assay; format: functional; settings: UO-31, 48 h, values are per cent of control
[22] = test system: UACC-62; assay: Anticancer activity against human UACC-62 cells assessed as inhibition of cell growth at 10 uM incubated for 48 hrs by SRB assay; format: functional
[23] = test system: MOLT-4; assay: Anticancer activity against human MOLT-4 cells assessed as inhibition of cell growth at 10 uM incubated for 48 hrs by SRB assay; format: functional
[24] = Cytotoxicity against mitogen activated human peripheral blood lymphocytes assessed as cell growth inhibition incubated for 48 hrs by MTT assay; format: toxicity, cell-based, Lymphocyte
[25] = Selectivity index, ratio of GI50 for human HaCaT cells to GI50 for human KB 3-1 cells; format: toxicity; settings: HaCaT cells versus KB 3-1 cells, read-out: RatioGI50
[26] = test system: CAKI-1; assay: Anticancer activity against human CAKI-1 cells assessed as inhibition of cell growth at 10 uM incubated for 48 hrs by SRB assay; format: functional; settings: CAKI-1, 48 h, values are per cent of control
[27] = Cytotoxicity against mitogen activated human peripheral blood lymphocytes assessed as cell growth inhibition incubated for 24 hrs by MTT assay; format: toxicity, cell-based, Lymphocyte
[28] = test system: MDA-MB-435; assay: Anticancer activity against human MDA-MB-435 cells assessed as inhibition of cell growth at 10 uM incubated for 48 hrs by SRB assay; format: functional
[29] = test system: KB 3-1; assay: Anticancer activity against human KB 3-1 cells assessed as cell growth inhibition incubated for 72 hrs by MTT assay; format: functional
[30] = test system: RPMI-8226; assay: Anticancer activity against human RPMI-8226 cells assessed as inhibition of cell growth at 10 uM incubated for 48 hrs by SRB assay; format: functional
[31] = test system: MCF7; assay: Anticancer activity against human MCF7 cells assessed as inhibition of cell growth at 10 uM incubated for 48 hrs by SRB assay; format: functional; settings: MCF7, 48 h, values are per cent of control
[32] = test system: Salmon testes DNA; assay: Displacement of methyl green from salmon sperm DNA at 10 uM measured after 2 hrs by fluorescence plate reader method relative to control; format: nucleic-acid assay; settings: Salmo salar

Structure (SMILES) | selectivity ratio [1] | GI50 [2] [µM] | GI50 [3] [µM] | selectivity ratio [4] | selectivity ratio [5] | selectivity ratio [6] | GI50 [8] [µM] | selectivity ratio [9] | GI50 [10] [µM] | GI50 [11] [µM] | GI50 [12] [µM] | selectivity ratio [13] | GI50 [14] [µM] | GI50 [15] [µM] | GI50 at 72 h [16] [µM] | selectivity ratio [17] | GI50 [18] [µM] | selectivity ratio [19] | selectivity ratio [20] | further results
C=CCOc1cccc(/C=C2\SC(=S)N(C3CC(=O)N(c4ccc(Cl)cc4)C3=O)C2=O)c1 (stereo not given) | 1 | > 100 | > 100 | 1 | 1 | 1 | 74 | 1.02 | > 100 | > 100 | > 100 | 1 | 98 | > 100 | > 100 | 1 | > 100 | 1.35 | 1 | inhibition at 10 µM [7]: 14.2%
O=C1Nc2ccc(Cl)cc2/C1=C1/SC(=S)N(C2CC(=O)N(c3ccc(Cl)cc3)C2=O)C1=O (stereo not given) | 1.72 | > 100 | 58 | 1 | 1 | 1 | 6.1 | 1 | > 100 | > 100 | > 100 | 1 | > 100 | > 100 | > 100 | 1 | > 100 | 16.4 | 1 | –
O=C1CC(N2C(=O)CSC2=S)C(=O)N1c1ccc(Cl)cc1 (stereo not given) | 1 | > 100 | > 100 | 0.98 | 0.98 | 0.98 | 88.4 | 0.98 | > 100 | > 100 | > 100 | 0.98 | > 100 | > 100 | 97.7 | 0.98 | > 100 | 1.1 | 0.98 | growth, % of control at 10 µM [21]: 76.3%
CCN(CC)c1ccc(/C=C2\SC(=S)N(C3CC(=O)N(c4ccc(Cl)cc4)C3=O)C2=O)cc1 (stereo not given) | – | – | – | – | – | – | – | – | – | – | – | – | – | – | – | – | – | – | – | inhibition at 10 µM [22]: 73.3%; inhibition at 10 µM [23]: 76%
C=CCOc1ccccc1/C=C1\SC(=S)N(C2CC(=O)N(c3ccc(Cl)cc3)C2=O)C1=O (stereo not given) | 2.1 | 57.1 | 47.5 | 1 | 10.4 | 1.01 | 53.3 | 1.25 | 98.6 | 91.2 | > 100 | 1.1 | 80.3 | > 100 | > 100 | 1.75 | 9.6 | 1.88 | 1 | GI50 at 48 h [24]: > 100 µM; selectivity ratio [25]: 1; growth, % of control at 10 µM [26]: 72.2%; GI50 at 24 h [27]: > 100 µM; inhibition at 10 µM [28]: 68.2%; GI50 [29]: > 100 µM
O=C1CC(N2C(=O)CSC2=S)C(=O)N1c1ccc(O)cc1 (stereo not given) | 1 | > 100 | > 100 | 1.64 | 1 | 1 | 23.4 | 1 | > 100 | > 100 | 60.8 | 1 | > 100 | > 100 | > 100 | 1 | > 100 | 4.27 | 1 | –
O=C1Nc2ccccc2/C1=C1/SC(=S)N(C2CC(=O)N(c3ccc(Br)cc3)C2=O)C1=O (stereo not given) | 1 | > 100 | > 100 | 1 | 1 | 1 | 21.5 | 1 | > 100 | > 100 | > 100 | 1 | > 100 | > 100 | > 100 | 1 | > 100 | 4.65 | 1 | inhibition at 10 µM [7]: 33.8%; inhibition at 10 µM [30]: 50%; growth, % of control at 10 µM [31]: 45.7%
C=CCOc1cccc(/C=C2\SC(=S)N(C3CC(=O)N(c4ccc(Br)cc4)C3=O)C2=O)c1 (stereo not given) | – | – | – | – | – | – | – | – | – | – | – | – | – | – | – | – | – | – | – | inhibition at 10 µM [22]: 86.8%
CC[n+]1c(-c2ccccc2)c2cc(N)ccc2c2ccc(N)cc21 | – | – | – | – | – | – | – | – | – | – | – | – | – | – | – | – | – | – | – | Activity [32]: 84.1%
O=C1Nc2ccccc2/C1=C1/SC(=S)N(C2CC(=O)N(c3ccc(Cl)cc3)C2=O)C1=O (stereo not given) | 1 | > 100 | > 100 | 1 | 1 | 1 | 49.9 | 1 | > 100 | > 100 | > 100 | 1 | > 100 | > 100 | > 100 | 1 | > 100 | 2 | 1 | growth, % of control at 10 µM [21]: 68.5%; inhibition at 10 µM [30]: 36.3%
